Test: method code SF-AS, from DOI: 10.1016/0223-5234(96)88212-2
Details: pH 7.4

| logD | Structure (SMILES) |
| --- | --- |
| 3.6 | Clc1ccccc1N1CCN(CCCOn2nnc3ccccc32)CC1 |
| 3.35 | Clc1ccccc1N1CCN(CCn2nnc3ccccc32)CC1 |
